Test results as given in PubChem BioAssay AID256 (DTP/NCI, 2004).
“And” between values parts separate entries of the source, which are not always exact repeats. Equal values may be shown once. Toxic doses and inconclusive results are not listed.

System: CD2F1 mice, L1210 leukemia ip, survival T/C
Experiment: NCI In Vivo Anticancer Drug Screen. Data for tumor model L1210 Leukemia (intraperitoneal) in CD2F1 (CDF1) mice
Conditions: higher = longer survival
Outline: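 Vehicle-treated tumor-bearing mice served as controls (C) for compound-treated mice (T). Reported figure is T divided by C.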

[1] = endpoint: mean survival time, dose: 100.0 mg/kg/injection, schedule: Q01DX009 (ip), vehicle: saline with Tween-80
[2] = endpoint: mean survival time, dose: 200.0 mg/kg/injection, schedule: Q01DX009 (ip), vehicle: saline with Tween-80
[3] = endpoint: mean survival time, dose: 25.0 mg/kg/injection, schedule: Q01DX005 (ip), vehicle: other
[4] = endpoint: mean survival time, dose: 50.0 mg/kg/injection, schedule: Q01DX005 (ip), vehicle: other
[5] = endpoint: mean survival time, dose: 100.0 mg/kg/injection, schedule: Q01DX005 (ip), vehicle: other
[6] = endpoint: mean survival time, dose: 200.0 mg/kg/injection, schedule: Q01DX005 (ip), vehicle: other
[7] = endpoint: mean survival time, dose: 100.0 mg/kg/injection, schedule: Q04DX002 (ip), vehicle: saline with Tween-80
[8] = endpoint: mean survival time, dose: 400.0 mg/kg/injection, schedule: Q01DX009 (ip), vehicle: saline with Tween-80
[9] = endpoint: mean survival time, dose: 100.0 mg/kg/injection, schedule: Q04DX003 (ip), vehicle: saline
[10] = endpoint: mean survival time, dose: 150.0 mg/kg/injection, schedule: Q01DX001 (ip), vehicle: saline
[11] = endpoint: mean survival time, dose: 100.0 mg/kg/injection, schedule: Q04DX003 (ip), vehicle: saline with Tween-80
[12] = endpoint: mean survival time, dose: 200.0 mg/kg/injection, schedule: Q04DX003 (ip), vehicle: saline with Tween-80
[13] = endpoint: mean survival time, dose: 400.0 mg/kg/injection, schedule: Q04DX003 (ip), vehicle: saline with Tween-80

For `COC1OC(CO)C(O)C(NC(=O)N(C)N=O)C1O` (centres undefined), the T/C (endpoint: mean survival time, dose: 12.5 mg/kg/injection, schedule: Q01DX009 (ip), vehicle: saline) was 111 % of control, the T/C (endpoint: mean survival time, dose: 25.0 mg/kg/injection, schedule: Q01DX009 (ip), vehicle: saline) was 114 % of control and the T/C (endpoint: mean survival time, dose: 100.0 mg/kg/injection, schedule: Q01DX009 (ip), vehicle: saline) was 151 % of control. For the same compound, the T/C (endpoint: mean survival time, dose: 200.0 mg/kg/injection, schedule: Q01DX009 (ip), vehicle: saline) was 157 % of control and 197 % of control, the T/C (endpoint: mean survival time, dose: 400.0 mg/kg/injection, schedule: Q01DX009 (ip), vehicle: saline) was 95 % of control and the T/C (endpoint: median survival time, dose: 25.0 mg/kg/injection, schedule: Q01DX009 (ip), vehicle: saline) was 121 % of control. For the same compound, the T/C (endpoint: median survival time, dose: 100.0 mg/kg/injection, schedule: Q01DX009 (ip), vehicle: saline) was 159 % of control and 160 % of control, the T/C (endpoint: median survival time, dose: 144.0 mg/kg/injection, schedule: Q01DX005 (ip), vehicle: saline) was 158 % of control and the T/C (endpoint: median survival time, dose: 200.0 mg/kg/injection, schedule: Q01DX009 (ip), vehicle: saline) was 172 % of control and 209 % of control. The T/C (endpoint: median survival time, dose: 240.0 mg/kg/injection, schedule: Q01DX005 (ip), vehicle: saline) was 170 % of control and 172 % of control, the T/C (endpoint: median survival time, dose: 400.0 mg/kg/injection, schedule: Q01DX005 (ip), vehicle: saline) was 175 % of control and 225 % of control and the T/C (endpoint: median survival time, dose: 400.0 mg/kg/injection, schedule: Q01DX009 (ip), vehicle: saline) was 222 % of control and 236 % of control. For the same compound, the T/C (endpoint: median survival time, dose: 666.66 mg/kg/injection, schedule: Q01DX005 (ip), vehicle: saline) was 233 % of control and the T/C (endpoint: median survival time, dose: 1111.11 mg/kg/injection, schedule: Q01DX005 (ip), vehicle: saline) was 92 % of control.

For `CC/C=C(CC)\C(=C\CC)CC`, the T/C (endpoint: mean survival time, dose: 50.0 mg/kg/injection, schedule: Q01DX009 (ip), vehicle: saline with Tween-80) was 100 % of control, the T/C [1] was 100 % of control and the T/C [2] was 107 % of control.

For `Nc1cc(=O)c2ncn(C3OC(CO)C(O)C3O)c2[nH]1` (centres undefined), the T/C [3] was 98 % of control, the T/C [4] was 93 % of control and the T/C [5] was 87 % of control. The T/C [6] was 106 % of control and the T/C (endpoint: mean survival time, dose: 400.0 mg/kg/injection, schedule: Q01DX005 (ip), vehicle: other) was 103 % of control.

For `Nc1ccc(S(=O)(=O)c2ccc(Nc3ccccc3)c(N)c2)cc1`, the T/C [7] was 97 % of control, the T/C (endpoint: mean survival time, dose: 200.0 mg/kg/injection, schedule: Q04DX002 (ip), vehicle: saline with Tween-80) was 94 % of control and the T/C (endpoint: mean survival time, dose: 400.0 mg/kg/injection, schedule: Q04DX002 (ip), vehicle: saline with Tween-80) was 97 % of control.

For `O=C(NC1CCC(CC2CCCCC2)CC1)c1ccccc1` (centres undefined), the T/C [1] was 100 % of control, the T/C [2] was 93 % of control and the T/C [8] was 114 % of control.

With `Cn1c(=O)c2[n-]cnc2n(C)c1=O.[NH2-].[NH2-].[NH2-].[NH2-].[NH2-].[Ru+6]` the T/C (endpoint: mean survival time, dose: 6.25 mg/kg/injection, schedule: Q04DX003 (ip), vehicle: water) was 106 % of control, the T/C (endpoint: mean survival time, dose: 12.5 mg/kg/injection, schedule: Q04DX003 (ip), vehicle: water) was 102 % of control and the T/C (endpoint: mean survival time, dose: 25.0 mg/kg/injection, schedule: Q04DX003 (ip), vehicle: water) was 104 % of control. For the same compound, the T/C (endpoint: mean survival time, dose: 50.0 mg/kg/injection, schedule: Q04DX003 (ip), vehicle: water) was 104 % of control and the T/C (endpoint: mean survival time, dose: 100.0 mg/kg/injection, schedule: Q04DX003 (ip), vehicle: water) was 104 % of control.

`CCC(=O)N(N=O)c1ccccc1` was tested, and the T/C (endpoint: mean survival time, dose: 4.7 mg/kg/injection, schedule: Q04DX003 (ip), vehicle: saline) was 102 % of control, the T/C (endpoint: mean survival time, dose: 9.4 mg/kg/injection, schedule: Q04DX003 (ip), vehicle: saline) was 107 % of control and the T/C (endpoint: mean survival time, dose: 18.8 mg/kg/injection, schedule: Q04DX003 (ip), vehicle: saline) was 102 % of control.

For `CC(=O)Nc1ccn(C2OC(CO)C(O)C2O)c(=O)n1` (centres undefined), the T/C (endpoint: mean survival time, dose: 12.5 mg/kg/injection, schedule: Q03HX024 (ip), vehicle: saline) was 196 % of control, the T/C (endpoint: mean survival time, dose: 25.0 mg/kg/injection, schedule: Q03HX024 (ip), vehicle: saline) was 274 % of control and the T/C (endpoint: mean survival time, dose: 37.5 mg/kg/injection, schedule: Q01DX008 (ip), vehicle: saline) was 150 % of control. For the same compound, the T/C (endpoint: mean survival time, dose: 50.0 mg/kg/injection, schedule: Q03HX024 (ip), vehicle: saline) was 257 % of control, the T/C (endpoint: mean survival time, dose: 50.0 mg/kg/injection, schedule: Q04DX003 (ip), vehicle: saline) was 113 % of control and the T/C (endpoint: mean survival time, dose: 75.0 mg/kg/injection, schedule: Q01DX008 (ip), vehicle: saline) was 160 % of control. For the same compound, the T/C [9] was 117 % of control, the T/C [10] was 106 % of control and the T/C (endpoint: mean survival time, dose: 150.0 mg/kg/injection, schedule: Q01DX008 (ip), vehicle: saline) was 174 % of control. For the same compound, the T/C (endpoint: mean survival time, dose: 300.0 mg/kg/injection, schedule: Q01DX001 (ip), vehicle: saline) was 107 % of control, the T/C (endpoint: mean survival time, dose: 600.0 mg/kg/injection, schedule: Q01DX001 (ip), vehicle: saline) was 107 % of control and the T/C (endpoint: mean survival time, dose: 1200.0 mg/kg/injection, schedule: Q01DX001 (ip), vehicle: saline) was 104 % of control.

In the case of `CC(=O)Nc1ccc(C(C)=O)cc1`, the T/C [11] is reported as 108 % of control, the T/C [12] is reported as 106 % of control and the T/C [13] is reported as 93 % of control.

For `COc1ccc(/C=C2/CCOC2=O)cc1`, the T/C (endpoint: mean survival time, dose: 3.12 mg/kg/injection, schedule: Q01DX001 (ip), vehicle: Klucel (hydroxypropylcellulose) (HPC)) was 104 % of control, the T/C (endpoint: mean survival time, dose: 3.12 mg/kg/injection, schedule: Q04DX002 (ip), vehicle: Klucel (hydroxypropylcellulose) (HPC)) was 103 % of control and the T/C (endpoint: mean survival time, dose: 6.25 mg/kg/injection, schedule: Q01DX001 (ip), vehicle: Klucel (hydroxypropylcellulose) (HPC)) was 102 % of control. The T/C (endpoint: mean survival time, dose: 6.25 mg/kg/injection, schedule: Q04DX002 (ip), vehicle: Klucel (hydroxypropylcellulose) (HPC)) was 100 % of control, the T/C (endpoint: mean survival time, dose: 12.5 mg/kg/injection, schedule: Q01DX001 (ip), vehicle: Klucel (hydroxypropylcellulose) (HPC)) was 116 % of control and the T/C (endpoint: mean survival time, dose: 12.5 mg/kg/injection, schedule: Q04DX002 (ip), vehicle: Klucel (hydroxypropylcellulose) (HPC)) was 107 % of control.

`Nc1ccc2nc3c4ccccc4c(O)n3nc2c1` was tested, and the T/C [1] was 89 % of control and the T/C [2] was 104 % of control.

With `COc1ccc(OC)c(/C=N/N=C/c2cc(OC)ccc2OC)c1` the T/C [11] was 106 % of control, the T/C [12] was 94 % of control and the T/C [13] was 94 % of control.

`CN(C)c1nc(N)c2nonc2n1` was tested, and the T/C (endpoint: mean survival time, dose: 12.5 mg/kg/injection, schedule: Q01DX005 (ip), vehicle: other) was 97 % of control, the T/C [3] was 97 % of control and the T/C [4] was 92 % of control. The T/C [5] was 97 % of control and the T/C [6] was 95 % of control.

In the case of `CC(Br)C(=O)NC(CC(N)=O)C(=O)O` (centres undefined), the T/C [11] is reported as 102 % of control and the T/C [12] is reported as 98 % of control.

For `O=c1cc[nH]cc1`, the T/C [1] was 94 % of control, the T/C [9] was 103 % of control and the T/C [2] was 100 % of control. For the same compound, the T/C (endpoint: mean survival time, dose: 200.0 mg/kg/injection, schedule: Q04DX003 (ip), vehicle: saline) was 97 % of control, the T/C [8] was 96 % of control and the T/C (endpoint: mean survival time, dose: 400.0 mg/kg/injection, schedule: Q04DX003 (ip), vehicle: saline) was 95 % of control.

With `COC(=O)C12CCc3ccoc3C1CCC1(C)C(C)=CCCC12` (centres undefined) the T/C (endpoint: mean survival time, dose: 50.0 mg/kg/injection, schedule: Q04DX002 (ip), vehicle: other) was 115 % of control, the T/C (endpoint: mean survival time, dose: 100.0 mg/kg/injection, schedule: Q04DX002 (ip), vehicle: other) was 107 % of control and the T/C (endpoint: mean survival time, dose: 200.0 mg/kg/injection, schedule: Q04DX002 (ip), vehicle: other) was 107 % of control.

With `CN(CCN1CCCCC1)C(=O)C(O)(c1ccccc1)c1ccccc1` the T/C (endpoint: mean survival time, dose: 75.0 mg/kg/injection, schedule: Q01DX001 (ip), vehicle: saline) was 104 % of control and the T/C [10] was 98 % of control.

`CCCCCCCCN(C=O)CCCCCCCC` was tested, and the T/C (endpoint: mean survival time, dose: 25.0 mg/kg/injection, schedule: Q04DX002 (ip), vehicle: saline with Tween-80) was 93 % of control, the T/C (endpoint: mean survival time, dose: 50.0 mg/kg/injection, schedule: Q04DX002 (ip), vehicle: saline with Tween-80) was 96 % of control and the T/C [7] was 104 % of control.

`[Cl][Pt+2][Cl].[NH-]c1cccc(F)c1.[NH-]c1cccc(F)c1` was tested, and the T/C (endpoint: mean survival time, dose: 12.5 mg/kg/injection, schedule: Q04DX003 (ip), vehicle: saline with Tween-80) was 97 % of control, the T/C (endpoint: mean survival time, dose: 25.0 mg/kg/injection, schedule: Q04DX003 (ip), vehicle: saline with Tween-80) was 114 % of control and the T/C (endpoint: mean survival time, dose: 50.0 mg/kg/injection, schedule: Q04DX003 (ip), vehicle: saline with Tween-80) was 102 % of control.

For `O=S(=O)(O)N=Nc1ccc(OCc2ccccc2)cc1`, the T/C (endpoint: mean survival time, dose: 100.0 mg/kg/injection, schedule: Q01DX001 (ip), vehicle: saline) was 100 % of control, the T/C (endpoint: mean survival time, dose: 200.0 mg/kg/injection, schedule: Q01DX001 (ip), vehicle: saline) was 100 % of control and the T/C (endpoint: mean survival time, dose: 400.0 mg/kg/injection, schedule: Q01DX001 (ip), vehicle: saline) was 97 % of control.

With `Fc1c(F)c(F)c(-c2c(F)c(F)c(-c3c(F)c(F)c(-c4c(F)c(F)c(F)c(F)c4F)c(F)c3F)c(F)c2F)c(F)c1F` the T/C [1] was 96 % of control and the T/C [2] was 88 % of control.

With `O=C1CCCc2c1[nH]c1ccccc21` the T/C [1] was 94 % of control, the T/C [2] was 104 % of control and the T/C [8] was 102 % of control.
